target: Rho-associated protein kinase 2 (Homo sapiens, UniProt O75116); assay: ROCK2 kinase inhibitor potency, dose response, biochemical, Kinase-Glo luminescence, S6 peptide, 1536-well (AID 644); details: not given
Sequence (O75116 whole entry): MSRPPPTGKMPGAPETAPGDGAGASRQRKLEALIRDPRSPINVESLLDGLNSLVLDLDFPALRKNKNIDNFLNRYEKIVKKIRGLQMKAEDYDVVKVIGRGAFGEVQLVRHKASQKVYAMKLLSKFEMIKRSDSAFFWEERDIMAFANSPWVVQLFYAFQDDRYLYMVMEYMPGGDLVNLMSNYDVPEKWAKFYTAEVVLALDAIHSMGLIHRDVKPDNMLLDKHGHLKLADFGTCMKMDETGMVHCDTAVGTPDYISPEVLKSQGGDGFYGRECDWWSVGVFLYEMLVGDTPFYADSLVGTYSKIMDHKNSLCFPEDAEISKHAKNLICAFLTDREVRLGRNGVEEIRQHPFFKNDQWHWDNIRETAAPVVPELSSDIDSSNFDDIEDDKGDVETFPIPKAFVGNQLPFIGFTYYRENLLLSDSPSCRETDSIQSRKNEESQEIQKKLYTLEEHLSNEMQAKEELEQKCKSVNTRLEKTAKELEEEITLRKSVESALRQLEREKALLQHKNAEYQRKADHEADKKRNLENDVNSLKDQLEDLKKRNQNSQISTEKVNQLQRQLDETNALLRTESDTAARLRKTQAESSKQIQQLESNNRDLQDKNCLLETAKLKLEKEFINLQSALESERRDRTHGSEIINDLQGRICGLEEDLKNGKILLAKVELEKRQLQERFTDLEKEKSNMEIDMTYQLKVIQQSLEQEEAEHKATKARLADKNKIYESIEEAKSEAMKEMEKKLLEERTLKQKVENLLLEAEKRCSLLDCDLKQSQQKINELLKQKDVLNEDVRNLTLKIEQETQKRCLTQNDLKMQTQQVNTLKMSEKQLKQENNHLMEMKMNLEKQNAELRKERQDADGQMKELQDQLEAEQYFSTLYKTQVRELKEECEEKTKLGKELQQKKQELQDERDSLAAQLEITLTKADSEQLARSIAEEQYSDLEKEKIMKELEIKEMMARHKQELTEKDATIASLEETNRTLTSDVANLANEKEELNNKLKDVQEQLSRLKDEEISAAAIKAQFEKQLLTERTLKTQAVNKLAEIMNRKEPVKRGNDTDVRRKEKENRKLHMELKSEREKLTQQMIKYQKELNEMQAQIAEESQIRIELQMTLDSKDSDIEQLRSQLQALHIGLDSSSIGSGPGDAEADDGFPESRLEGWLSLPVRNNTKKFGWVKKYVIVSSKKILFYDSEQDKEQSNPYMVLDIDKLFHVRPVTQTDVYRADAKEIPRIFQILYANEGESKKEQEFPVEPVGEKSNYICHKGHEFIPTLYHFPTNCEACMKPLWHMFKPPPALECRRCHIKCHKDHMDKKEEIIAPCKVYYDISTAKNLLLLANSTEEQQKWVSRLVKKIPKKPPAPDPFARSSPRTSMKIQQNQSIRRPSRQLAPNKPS

Structure (SMILES) | IC50 [µM]
CCN(CC)CCNC(=O)CCCCn1c(=S)[nH]c2c([nH]c3ccc(OC)cc32)c1=O [N-[2-(diethylamino)ethyl]-5-(8-methoxy-4-oxo-2-thioxo-1,2,4,5-tetrahydro-3H-pyrimido[5,4-b]indol-3-yl)pentanamide] | > 19.9
c1cn(CCCNc2ncnc3nc[nH]c23)cn1 [N-[3-(1-imidazolyl)propyl]-7H-purin-6-amine] | 6.18
C1=C(c2ccccc2)CCN(c2[nH]cnc3ncnc2-3)C1 [SMR000017661] | > 19.9

same assay, conditions: inactive by the depositor's call

Structure (SMILES) | IC50 [µM]
O=C(Nc1ccc(N2CCOCC2)cc1)Nc1ccc2nc(-c3ccco3)c(-c3ccco3)nc2c1 [N-(2,3-di-2-furyl-6-quinoxalinyl)-N'-[4-(4-morpholinyl)phenyl]urea] | 25.6
Cc1cccc(Nc2ncnc3[nH]cnc23)c1 [N-(3-methylphenyl)-7H-purin-6-amine] | 13
c1nc(NC2CCCCC2)c2[nH]cnc2n1 [N-cyclohexyl-7H-purin-6-amine] | 15.3
N#Cc1cccc(NC(=O)NCCc2c[nH]c3ccccc23)c1 [SMR000096894] | 16.1
Nc1cccc2cnccc12 [isoquinolin-5-amine] | 30.1

Reference: BindingDB's records for doi:10.7270/Q2F769ZM (The Scripps Research Institute Molecular Screening Center, 2007)
